The supplement of paper PMC10307832

Legend:
Assay in all cases: relative viability (nuclei count vs DMSO), 5 days (fraction); higher = more cells survive
[1] = compound: CCN(CCO)CCCC(C)Nc1ccnc2cc(Cl)ccc12 [Hydroxychloroquine]
Summary of the method: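 Acceptance criteria were a control CV below 25% and at least one doubling per plate. Lung cancer cell lines in 1536-well plates got five library-drug doses (not always all listed) √10 apart by pinning and were left 5 days with no medium change. Viability divides treated-well nuclei by vehicle-well nuclei and is the median across plates. Nuclei were counted by MetaXpress from 4× Hoechst images.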

[2] = compound: CCN(CCO)CCCC(C)Nc1ccnc2cc(Cl)ccc12 [Hydroxychloroquine] + Cc1cc(Nc2cc(N3CCN(C)CC3)nc(Sc3ccc(NC(=O)C4CC4)cc3)n2)n[nH]1 [Tozasertib] (partner 0.1 µM)
Summary of the method: (§1)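 For relative viability, nuclei counts in treated wells were divided by those in vehicle wells. Lung cancer cell lines had been pin-tool dosed in 1536-well plates the day after seeding and cultured for 5 days, then fixed and stained in one step (final 0.05% Triton X-100, 1% formaldehyde, 1 ug/ml Hoechst) and imaged at 4×. Doses were one drug alone or a fixed anchor-drug dose plus five library-drug doses (not always all listed) in √10 steps, and values are duplicate-plate medians.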

[3] = compound: CCN(CCO)CCCC(C)Nc1ccnc2cc(Cl)ccc12 [Hydroxychloroquine] + Nc1nc2[nH]cc(CCc3ccc(C(=O)N[C@@H](CCC(=O)O)C(=O)O)cc3)c2c(=O)[nH]1 [Pemetrexed] (partner 0.2 µM)
Summary of the method: as §1

[4] = compound: CCN(CCO)CCCC(C)Nc1ccnc2cc(Cl)ccc12 [Hydroxychloroquine] + CC(=O)c1c(C)c2cnc(Nc3ccc(N4CCNCC4)cn3)nc2n(C2CCCC2)c1=O [Palbociclib] (partner 0.5 µM)
Summary of the method: as §1

[5] = compound: CCN(CCO)CCCC(C)Nc1ccnc2cc(Cl)ccc12 [Hydroxychloroquine] + Cc1nc(Nc2ncc(C(=O)Nc3c(C)cccc3Cl)s2)cc(N2CCN(CCO)CC2)n1 [Dasatinib] (partner 0.075 µM)
Summary of the method: as §1

[6] = compound: CCN(CCO)CCCC(C)Nc1ccnc2cc(Cl)ccc12 [Hydroxychloroquine] + O=C(c1cc(Cc2n[nH]c(=O)c3ccccc23)ccc1F)N1CCN(C(=O)C2CC2)CC1 [Olaparib] (partner 8 µM)
Summary of the method: as §1

[7] = compound: CCN(CCO)CCCC(C)Nc1ccnc2cc(Cl)ccc12 [Hydroxychloroquine] + CCNC(=O)c1noc(-c2cc(C(C)C)c(O)cc2O)c1-c1ccc(CN2CCOCC2)cc1 [Luminespib] (partner 0.01 µM)
Summary of the method: as §1

[8] = compound: CCN(CCO)CCCC(C)Nc1ccnc2cc(Cl)ccc12 [Hydroxychloroquine] + Nc1ncn([C@H]2C[C@H](O)[C@@H](CO)O2)c(=O)n1 [Decitabine] (partner 2 µM)
Summary of the method: as §1

[9] = compound: CCN(CCO)CCCC(C)Nc1ccnc2cc(Cl)ccc12 [Hydroxychloroquine] + COc1cccc2cc(-c3nc([C@H]4CC[C@H](C(=O)O)CC4)n4ncnc(N)c34)[nH]c12 [OSI-027] (partner 0.5 µM)
Summary of the method: as §1

[10] = compound: CCN(CCO)CCCC(C)Nc1ccnc2cc(Cl)ccc12 [Hydroxychloroquine] + N=C(N)NC(=N)NCCc1ccccc1 [Phenformin] (partner 250 µM)
Summary of the method: as §1

[11] = compound: CCN(CCO)CCCC(C)Nc1ccnc2cc(Cl)ccc12 [Hydroxychloroquine] + NC(=O)Nc1cc(-c2cccc(F)c2)sc1C(=O)N[C@H]1CCCNC1 [AZD7762] (partner 0.2 µM)
Summary of the method: as §1

[12] = compound: CCN(CCO)CCCC(C)Nc1ccnc2cc(Cl)ccc12 [Hydroxychloroquine] + O=C(CCCCCCC(=O)Nc1ccccc1)NO [Vorinostat] (partner 1 µM)
Summary of the method: as §1

[13] = compound: CCN(CCO)CCCC(C)Nc1ccnc2cc(Cl)ccc12 [Hydroxychloroquine] + CC(=O)Nc1cccc(-n2c(=O)n(C3CC3)c(=O)c3c(Nc4ccc(I)cc4F)n(C)c(=O)c(C)c32)c1 [Trametinib] (partner 0.02 µM)
Summary of the method: as §1

[14] = compound: CCN(CCO)CCCC(C)Nc1ccnc2cc(Cl)ccc12 [Hydroxychloroquine] + COc1cc2c(Oc3ccc(NC(=O)C4(C(=O)Nc5ccc(F)cc5)CC4)cc3F)ccnc2cc1OCCCN1CCOCC1 [Foretinib] (partner 0.25 µM)
Summary of the method: as §1

## NCI-H522
[1]; 0.5 µM
  relative viability: 1.01
[1]; 1.581 µM
  relative viability: 0.844
[1]; 5 µM
  relative viability: 0.95
[1]; 15.81 µM
  relative viability: 0.836
[1]; 50 µM
  relative viability: 0.954
[2]; first compound 0.5 µM
  relative viability: 0.524
[2]; first compound 1.581 µM
  relative viability: 0.619
[2]; first compound 5 µM
  relative viability: 0.607
[2]; first compound 15.81 µM
  relative viability: 0.632
[2]; first compound 50 µM
  relative viability: 0.525
[3]; first compound 0.5 µM
  relative viability: 1.02
[3]; first compound 5 µM
  relative viability: 1.39
[3]; first compound 15.81 µM
  relative viability: 0.974
[3]; first compound 50 µM
  relative viability: 0.98
[4]; first compound 0.5 µM
  relative viability: 0.822
[4]; first compound 5 µM
  relative viability: 1.03
[4]; first compound 15.81 µM
  relative viability: 0.986
[4]; first compound 50 µM
  relative viability: 0.798
[5]; first compound 0.5 µM
  relative viability: 0.933
[5]; first compound 1.581 µM
  relative viability: 0.942
[5]; first compound 5 µM
  relative viability: 0.755
[5]; first compound 15.81 µM
  relative viability: 1.03
[5]; first compound 50 µM
  relative viability: 0.913
[6]; first compound 0.5 µM
  relative viability: 0.578
[6]; first compound 5 µM
  relative viability: 0.68
[6]; first compound 15.81 µM
  relative viability: 0.642
[6]; first compound 50 µM
  relative viability: 0.608
[7]; first compound 0.5 µM
  relative viability: 1.17
[7]; first compound 1.581 µM
  relative viability: 1.12
[7]; first compound 5 µM
  relative viability: 1.08
[7]; first compound 15.81 µM
  relative viability: 1.31
[7]; first compound 50 µM
  relative viability: 1.32
[8]; first compound 0.5 µM
  relative viability: 0.689
[8]; first compound 5 µM
  relative viability: 0.566
[8]; first compound 15.81 µM
  relative viability: 0.676
[8]; first compound 50 µM
  relative viability: 0.59
[9]; first compound 0.5 µM
  relative viability: 0.718
[9]; first compound 1.581 µM
  relative viability: 0.671
[9]; first compound 5 µM
  relative viability: 0.712
[9]; first compound 15.81 µM
  relative viability: 0.684
[9]; first compound 50 µM
  relative viability: 0.682
[10]; first compound 0.5 µM
  relative viability: 0.647
[10]; first compound 1.581 µM
  relative viability: 0.581
[10]; first compound 5 µM
  relative viability: 0.702
[10]; first compound 15.81 µM
  relative viability: 0.717
[10]; first compound 50 µM
  relative viability: 0.623
[11]; first compound 0.5 µM
  relative viability: 0.712
[11]; first compound 5 µM
  relative viability: 0.674
[11]; first compound 15.81 µM
  relative viability: 0.974
[11]; first compound 50 µM
  relative viability: 0.907
[12]; first compound 0.5 µM
  relative viability: 0.832
[12]; first compound 5 µM
  relative viability: 0.882
[12]; first compound 15.81 µM
  relative viability: 0.904
[12]; first compound 50 µM
  relative viability: 1.01
[13]; first compound 0.5 µM
  relative viability: 0.674
[13]; first compound 5 µM
  relative viability: 0.915
[13]; first compound 15.81 µM
  relative viability: 0.65
[13]; first compound 50 µM
  relative viability: 0.805

## NCI-H1623
[1]; 0.5 µM
  relative viability: 0.88
[1]; 1.581 µM
  relative viability: 0.959
[1]; 5 µM
  relative viability: 0.941
[1]; 15.81 µM
  relative viability: 0.943
[1]; 50 µM
  relative viability: 0.992
[2]; first compound 0.5 µM
  relative viability: 0.392
[2]; first compound 1.581 µM
  relative viability: 0.405
[2]; first compound 5 µM
  relative viability: 0.406
[2]; first compound 15.81 µM
  relative viability: 0.526
[2]; first compound 50 µM
  relative viability: 0.488
[14]; first compound 0.5 µM
  relative viability: 0.823
[14]; first compound 1.581 µM
  relative viability: 0.842
[14]; first compound 5 µM
  relative viability: 0.88
[14]; first compound 15.81 µM
  relative viability: 0.937
[14]; first compound 50 µM
  relative viability: 0.82
[5]; first compound 0.5 µM
  relative viability: 0.554
[5]; first compound 1.581 µM
  relative viability: 0.485
[5]; first compound 5 µM
  relative viability: 0.51
[5]; first compound 15.81 µM
  relative viability: 0.547
[5]; first compound 50 µM
  relative viability: 0.52
[7]; first compound 0.5 µM
  relative viability: 0.431
[7]; first compound 1.581 µM
  relative viability: 0.409
[7]; first compound 5 µM
  relative viability: 0.496
[7]; first compound 15.81 µM
  relative viability: 0.74
[7]; first compound 50 µM
  relative viability: 0.537
[9]; first compound 0.5 µM
  relative viability: 0.411
[9]; first compound 1.581 µM
  relative viability: 0.406
[9]; first compound 5 µM
  relative viability: 0.449
[9]; first compound 15.81 µM
  relative viability: 0.418
[9]; first compound 50 µM
  relative viability: 0.439
[10]; first compound 0.5 µM
  relative viability: 0.544
[10]; first compound 1.581 µM
  relative viability: 0.565
[10]; first compound 5 µM
  relative viability: 0.578
[10]; first compound 15.81 µM
  relative viability: 0.606
[10]; first compound 50 µM
  relative viability: 0.588
